Measured values reported in ChEMBL document CHEMBL4622974, “Leveraging an Open Science Drug Discovery Model to Develop CNS-Penetrant ALK2 Inhibitors for the Treatment of Diffuse Intrinsic Pontine Glioma” (J Med Chem, 2020).
pIC50: −log10 of the molar value. Each block holds one molecule with its values, some of them ahead of it.

Legend:
[1] = Oral bioavailability in BALB/c mouse at 5 mg/kg by LC-MS/MS analysis; assay type: ADME, organism-based; conditions: in vivo
[2] = Half life in BALB/c mouse at 5 mg/kg, po by LC-MS/MS analysis; assay type: ADME, organism-based; conditions: in vivo
[3] = Drug level in NOD/SCID mouse brain at 25 mg/kg, po measured at 2 hr post dose on day 14 by LC-MS/MS analysis; assay type: ADME, organism-based; conditions: read-out: Drug uptake
[4] = Ratio of drug level in brain to plasma in NOD/SCID mouse at 25 mg/kg, po measured at 2 hr post dose on day 14 by LC-MS/MS analysis; assay type: ADME, organism-based; conditions: read-out: BPR
Activin receptor type-1 [5] = target: T1, Activin receptor type-1 (Homo sapiens, UniProt Q04771); assay: Inhibition of human ALK2 using casein as substrate in presence of [gamma-33P]-ATP by radiometric hotspot assay
T1 sequence (Q04771 whole entry): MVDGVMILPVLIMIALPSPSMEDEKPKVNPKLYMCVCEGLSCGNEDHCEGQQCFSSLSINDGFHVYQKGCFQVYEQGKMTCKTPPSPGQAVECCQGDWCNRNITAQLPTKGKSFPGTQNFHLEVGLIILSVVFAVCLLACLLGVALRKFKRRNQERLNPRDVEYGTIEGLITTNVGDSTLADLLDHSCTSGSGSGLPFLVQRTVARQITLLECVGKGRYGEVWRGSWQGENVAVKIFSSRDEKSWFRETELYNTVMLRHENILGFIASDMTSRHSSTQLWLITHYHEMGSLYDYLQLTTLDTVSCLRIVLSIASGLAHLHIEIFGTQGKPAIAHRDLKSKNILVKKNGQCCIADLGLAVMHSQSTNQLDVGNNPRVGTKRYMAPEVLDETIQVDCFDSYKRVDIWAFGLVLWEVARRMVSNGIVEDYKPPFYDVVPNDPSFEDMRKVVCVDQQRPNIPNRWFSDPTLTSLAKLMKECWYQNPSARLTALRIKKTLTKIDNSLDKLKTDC

Activin receptor type-1B = target: T2, Activin receptor type-1B (Homo sapiens, UniProt P36896); assay: Inhibition of human ALK4 using casein as substrate in presence of [gamma-33P]-ATP by radiometric hotspot assay; assay type: ADME
T2 sequence (P36896 whole entry): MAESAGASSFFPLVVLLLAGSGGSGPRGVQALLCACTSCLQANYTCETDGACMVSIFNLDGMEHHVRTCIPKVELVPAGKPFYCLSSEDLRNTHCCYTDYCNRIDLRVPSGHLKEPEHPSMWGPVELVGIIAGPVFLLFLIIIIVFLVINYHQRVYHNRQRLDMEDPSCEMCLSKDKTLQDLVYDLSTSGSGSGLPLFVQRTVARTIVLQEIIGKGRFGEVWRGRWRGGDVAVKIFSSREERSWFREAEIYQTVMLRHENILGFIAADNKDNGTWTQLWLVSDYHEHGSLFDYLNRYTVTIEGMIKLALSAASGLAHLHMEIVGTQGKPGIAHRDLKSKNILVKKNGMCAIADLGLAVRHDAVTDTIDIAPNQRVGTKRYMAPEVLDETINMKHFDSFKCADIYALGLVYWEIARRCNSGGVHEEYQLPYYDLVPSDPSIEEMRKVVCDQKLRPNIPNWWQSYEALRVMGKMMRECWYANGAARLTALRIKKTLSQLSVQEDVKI

TGF-beta receptor type-1 [6] = target: T3, TGF-beta receptor type-1 (Homo sapiens, UniProt P36897); assay: Inhibition of human ALK5 using casein as substrate in presence of [gamma-33P]-ATP by radiometric hotspot assay; assay type: ADME
T3 sequence (P36897 whole entry): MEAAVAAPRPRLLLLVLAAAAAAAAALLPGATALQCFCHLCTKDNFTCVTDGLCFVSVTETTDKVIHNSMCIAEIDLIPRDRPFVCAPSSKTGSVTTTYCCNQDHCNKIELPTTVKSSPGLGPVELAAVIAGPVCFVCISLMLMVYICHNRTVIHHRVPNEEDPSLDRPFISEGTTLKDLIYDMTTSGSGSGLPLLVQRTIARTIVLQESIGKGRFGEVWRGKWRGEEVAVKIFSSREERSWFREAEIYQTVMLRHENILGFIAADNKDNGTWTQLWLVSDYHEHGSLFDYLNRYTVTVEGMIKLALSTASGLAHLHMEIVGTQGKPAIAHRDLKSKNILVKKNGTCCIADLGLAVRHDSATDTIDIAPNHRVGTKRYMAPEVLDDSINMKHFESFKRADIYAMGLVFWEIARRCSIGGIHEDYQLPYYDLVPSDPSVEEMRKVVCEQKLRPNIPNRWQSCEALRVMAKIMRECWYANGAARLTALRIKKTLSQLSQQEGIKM

Activin receptor type-1 [7] = target: T1, Activin receptor type-1; assay: Competitive displacement of PBI-6908 from nanoluciferase-fused ALK2 (unknown origin) expressed in HEK293 cells incubated for 2 hrs by NanoBRET NanoGlo substrate based NanoBRET assay; assay type: cell-based
TGF-beta receptor type-1 [8] = target: T3, TGF-beta receptor type-1; assay: Inhibition of recombinant human ALK5 expressed in HEK293 cells transfected with CAGA-luciferase and Renilla luciferase reporter after 24 hrs by dual luciferase reporter assay; assay type: cell-based
[9] = target: Voltage-gated inwardly rectifying potassium channel KCNH2 (Homo sapiens, UniProt Q12809); assay: Inhibition of human ERG expressed in HEK293 cells after 5 mins by IonWorks barracuda patch clamp method; assay type: cell-based
Voltage-gated inwardly rectifying potassium channel KCNH2, sequence (Q12809 whole entry): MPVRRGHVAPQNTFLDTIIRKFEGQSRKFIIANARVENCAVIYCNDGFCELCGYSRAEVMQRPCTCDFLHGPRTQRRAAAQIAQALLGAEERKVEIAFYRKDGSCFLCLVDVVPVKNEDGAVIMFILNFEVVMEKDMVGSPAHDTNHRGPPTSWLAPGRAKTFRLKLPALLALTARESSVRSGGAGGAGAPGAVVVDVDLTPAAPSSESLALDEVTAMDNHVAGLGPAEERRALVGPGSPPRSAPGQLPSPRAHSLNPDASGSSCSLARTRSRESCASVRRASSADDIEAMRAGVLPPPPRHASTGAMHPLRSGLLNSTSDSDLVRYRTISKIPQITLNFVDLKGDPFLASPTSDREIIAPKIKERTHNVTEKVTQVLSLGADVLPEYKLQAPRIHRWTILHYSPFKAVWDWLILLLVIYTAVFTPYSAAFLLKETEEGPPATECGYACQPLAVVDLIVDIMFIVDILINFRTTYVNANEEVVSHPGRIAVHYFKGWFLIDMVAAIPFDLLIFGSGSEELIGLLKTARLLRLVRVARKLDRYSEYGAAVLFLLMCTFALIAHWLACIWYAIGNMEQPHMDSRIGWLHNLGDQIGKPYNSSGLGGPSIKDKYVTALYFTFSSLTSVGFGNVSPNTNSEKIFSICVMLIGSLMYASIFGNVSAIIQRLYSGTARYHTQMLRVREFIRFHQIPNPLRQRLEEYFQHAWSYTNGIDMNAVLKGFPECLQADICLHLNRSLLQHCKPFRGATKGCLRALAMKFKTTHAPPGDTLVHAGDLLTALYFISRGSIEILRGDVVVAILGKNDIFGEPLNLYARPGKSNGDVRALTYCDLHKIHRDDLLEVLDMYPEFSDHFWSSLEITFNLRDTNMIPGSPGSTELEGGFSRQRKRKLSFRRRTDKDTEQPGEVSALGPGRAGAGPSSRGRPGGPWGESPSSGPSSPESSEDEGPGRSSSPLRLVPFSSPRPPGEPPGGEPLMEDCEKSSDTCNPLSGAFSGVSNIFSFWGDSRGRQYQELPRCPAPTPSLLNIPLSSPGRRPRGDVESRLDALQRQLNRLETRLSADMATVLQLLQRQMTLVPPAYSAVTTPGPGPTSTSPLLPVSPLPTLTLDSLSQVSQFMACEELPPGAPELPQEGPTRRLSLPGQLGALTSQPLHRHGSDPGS

[10] = Stability in CD1 mouse liver microsomes assessed as compound remaining at 1 uM incubated for 60 mins by LC/MS analysis; assay type: ADME, Microsome; conditions: read-out: Stability
[11] = Stability in human liver microsomes assessed as compound remaining at 1 uM incubated for 60 mins by LC/MS analysis; assay type: ADME, Microsome; conditions: read-out: Stability
[12] = Apparent permeability across apical to basolateral side in human Caco2 cells at 5 uM after 120 mins by LC-MS/MS analysis; conditions: Caco-2
[13] = Apparent permeability across basolateral to apical side in human Caco2 cells at 5 uM after 120 mins by LC-MS/MS analysis; assay type: ADME, cell-based; conditions: Caco-2
[14] = Efflux ratio of apparent permeability across basolateral to apical over apical to basolateral side in human Caco2 cells at 5 uM incubated for 2 hrs by LC/MS/MS analysis; conditions: Caco-2
[15] = Half life in CD1 mouse liver microsomes at 1 uM incubated for 60 mins by LC/MS analysis; assay type: ADME, Microsome
[16] = Half life in human liver microsomes at 1 uM incubated for 60 mins by LC/MS analysis; assay type: ADME, Microsome
[17] = Clearance in CB17 SCID mouse at 2 mg/kg, iv after 0.25 to 24 hrs by LC/MS/MS method; assay type: ADME, organism-based; conditions: in vivo
[18] = Volume of distribution at steady state in CB17 SCID mouse at 2 mg/kg, iv after 0.25 to 24 hrs by LC/MS/MS method; assay type: ADME, organism-based; conditions: in vivo, read-out: Vdss
[19] = Half life in CB17 SCID mouse at 10 mg/kg, po after 0.25 to 24 hrs by LC/MS/MS method; assay type: ADME, organism-based; conditions: in vivo
[20] = Cmax in CB17 SCID mouse at 10 mg/kg, po after 0.25 to 24 hrs by LC/MS/MS method; assay type: ADME, organism-based; parameters: dose 10 mg/kg, route oral; conditions: in vivo
[21] = AUCinfinity in CB17 SCID mouse at 10 mg/kg, po after 0.25 to 24 hrs by LC/MS/MS method; assay type: ADME, organism-based; parameters: dose 10 mg/kg, time infinity, route oral; conditions: in vivo
[22] = Oral bioavailability in CB17 SCID mouse at 10 mg/kg after 0.25 to 24 hrs by LC/MS/MS method; assay type: ADME, organism-based; conditions: in vivo
[23] = Ratio of drug level in brain to plasma in CB17 SCID mouse at 10 mg/kg, po measured at 4 h; assay type: ADME, organism-based; conditions: brain and plasma, read-out: BPR
[24] = Toxicity in CB17 SCID mouse assessed as induction of adverse effect at 2 mg/kg, iv; assay type: organism-based; conditions: in vivo
[25] = Toxicity in CB17 SCID mouse assessed as induction of adverse effect at 10 mg/kg, po; assay type: organism-based; conditions: in vivo
[26] = Plasma concentration in NOD/SCID mouse at 25 mg/kg, po measured after 0.5 to 6 hrs; assay type: ADME, organism-based; conditions: in vivo
[27] = Drug uptake in NOD/SCID mouse at 25 mg/kg, po measured after 0.5 to 6 hrs; assay type: ADME, organism-based; conditions: in vivo

- bioavailability [1]: 75%
- half-life [2]: 3.91 h
- concentration at 2 h [3]: 10.9 µM
- Kp at 2 h [4]: 0.8
Structure (SMILES): COc1cc(-c2cc(-c3ccc(N4CCNCC4)cc3)cnc2C)cc(OC)c1OC

Structure (SMILES): COc1cc(-c2cncc(-c3ccc(C4=CCNCC4)cc3)c2C)cc(OC)c1OC
- pIC50 (Activin receptor type-1 [5]): 8.30
- pIC50 (Activin receptor type-1B): < 5.70
- pIC50 (TGF-beta receptor type-1 [6]): < 5.30
- pIC50 (Activin receptor type-1 [7]): 7.33
- pIC50 (TGF-beta receptor type-1 [8]): 5.12
- pIC50 [9]: 5.47
- remaining at 1 h, 1 µM [10]: 73.9%
- remaining at 1 h, 1 µM [11]: 68%
- Papp A→B at 2 h, 5 µM [12]: 2.9 ×10⁻⁶ cm/s
- Papp B→A at 2 h, 5 µM [13]: 3.9 ×10⁻⁶ cm/s
- efflux ratio at 2 h, 5 µM [14]: 1.3
- half-life at 1 µM [15]: > 1 h
- half-life at 1 µM [16]: > 1 h
- clearance [17]: 3.84 mL/min/kg
- Vd [18]: 1.66 L/kg
- half-life [19]: 6.02 h
- Cmax [20]: 6.62 µM
- AUC(0-inf) [21]: 82.5 µM·h
- bioavailability [22]: 79%
- Kp at 4 h [23]: 0.43
- Activity [24]: Non-Toxic
- Activity [25]: Non-Toxic

Structure (SMILES): COc1cc(-c2cncc(-c3ccc(N4CCNCC4)cc3)c2C)cc(OC)c1OC
- concentration [26]: 9.11 µM

Structure (SMILES): COc1cc(-c2cncc(-c3ccc(N4CCNCC4)cc3)c2C)cc(OC)c1OC.CS(=O)(=O)O
- Drug uptake [27]: Active
